Holding throughout (assay type): cell-based
Assay [1] deals with T1, pig TRPM8 (Sus scrofa, UniProt F1SM15).
T1 construct: expressed in transfected cells; host or cells: CHO (pcDNA5/FRT/TO vector; hygromycin B and blasticidin selection)
Kind of assay: In vitro pig TRPM8 fluorescence calcium flux assay (recombinant CHO cells, Fluo4-AM, FDSS6000). The note with it: recombinant CHO cells expressing pig TRPM8; menthol-related EC50, normalized to 100 μM menthol. An outline of the steps: (§1)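 CHO cells stably expressing pig or human TRPM8, loaded with 2 μM Fluo4-AM in HBSS/20 mM HEPES/0.1% BSA/2.5 mM probenecid for 1 h at RT. Intracellular calcium read kinetically for 3 min after compound addition. EC50 from sixteen-point curves, normalized to 100 μM menthol maximal response.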
(In general: A change in cytosolic calcium serves as a functional read-out for many receptors and channels.)

The target of assay [2] is T2, human TRPM8 (Homo sapiens, UniProt Q7Z2W7).
T2 construct: expressed in transfected cells; host or cells: CHO (p658 mammalian expression vector)
Kind of assay: In vitro human TRPM8 automated patch-clamp assay (SyncroPatch 384PE, CHO cells). The note with it: CHO cells expressing human TRPM8, 28° C. The protocol: (§2) In Vitro Pig and Human TRPM8 Automated Patch-Clamp Assays
(§3) Automated whole-cell recordings of compound effects were performed on the SyncroPatch 384PE (Nanion Technologies, Munich, Germany) incorporated into a Biomek FX pipetting robot (Beckman Coulter, Jersey City, NJ, USA) using the same engineered CHO cell lines expressing human or pig TRPM8 channels. Data acquisition and analysis were performed with the proprietary software PatchControl 384 and DataControl 384, respectively (Nanion Technologies, Munich, Germany). All recordings were carried out using planar borosilicate glass patch clamp chips in a 384-microtiter plate format with patch hole resistances of 2-4 MO. For recordings, standard intracellular solution was used containing (in mM): 130 KF, 4 NaCl, 1 MgCl2, 0.5 CaCl2, 10 HEPES and 10 EGTA/KOH (pH 7.2) and standard extracellular solution contained in mM: 150 NaCl, 4 KCl, 0.5 CaCl2, 1 MgCl2 and 10 HEPES (pH 7.3).
(§4) Prior to the electrophysiological measurements, cells were harvested using Accutase (GIBCO, Fisher Scientific) and resuspended in warmed extracellular solution. The cell suspension was kept in the dedicated cell reservoir at 28° C. at a 1 million/ml cell density and shaken at 500 rounds per min (rpm). Experiments were performed at 28° C. throughout. Cells were distributed in high resistance 4-holes-per-well Nanion chips where they were caught on the patch holes by application of a −80 mbar pressure. The cell membrane was ruptured to obtain the whole-cell configuration with a pressure pulse of −250 mbar for 2 seconds. Voltage protocols were constructed using PatchControl 384. The cells were held at a holding potential of −60 mV and TRPM8 currents were recorded using a ramp protocol from −80 to +80 mV every 5 seconds before and after compound addition. Resulting currents were recorded at both −80 and +80 mV and current kinetics were exported and analyzed. From each plate, control wells with 200 μM menthol were recorded to validate the assay. One concentration of compound was applied to each of the other wells. For each concentration, compound response was determined by subtracting the baseline current recorded before compound addition from the maximum peak elicited currents obtained after compound addition. Then, each compound response was normalized to control condition without compound and maximum current (Emax) obtained for each compound. Nanion DataControl 384 software plotted current response for each compound concentration and was able to calculate an EC50 value for each active compound.

For assay [3], the target named is T2, human TRPM8. As to the kind of experiment: In vitro human TRPM8 fluorescence calcium flux assay (recombinant CHO cells, Fluo4-AM, FDSS6000). The note with it: recombinant CHO cells expressing human TRPM8; menthol-related EC50, normalized to 100 μM menthol. A digest of the protocol:
as §1

The target in assay [4] is T1, pig TRPM8. As to the kind of experiment: In vitro pig TRPM8 automated patch-clamp assay (SyncroPatch 384PE, CHO cells). The note with it: CHO cells expressing pig TRPM8, 28° C. The protocol: as §2, §3, §4
(In patch-clamp work, channel activity is measured electrically.)

T1 sequence (F1SM15 1-1104): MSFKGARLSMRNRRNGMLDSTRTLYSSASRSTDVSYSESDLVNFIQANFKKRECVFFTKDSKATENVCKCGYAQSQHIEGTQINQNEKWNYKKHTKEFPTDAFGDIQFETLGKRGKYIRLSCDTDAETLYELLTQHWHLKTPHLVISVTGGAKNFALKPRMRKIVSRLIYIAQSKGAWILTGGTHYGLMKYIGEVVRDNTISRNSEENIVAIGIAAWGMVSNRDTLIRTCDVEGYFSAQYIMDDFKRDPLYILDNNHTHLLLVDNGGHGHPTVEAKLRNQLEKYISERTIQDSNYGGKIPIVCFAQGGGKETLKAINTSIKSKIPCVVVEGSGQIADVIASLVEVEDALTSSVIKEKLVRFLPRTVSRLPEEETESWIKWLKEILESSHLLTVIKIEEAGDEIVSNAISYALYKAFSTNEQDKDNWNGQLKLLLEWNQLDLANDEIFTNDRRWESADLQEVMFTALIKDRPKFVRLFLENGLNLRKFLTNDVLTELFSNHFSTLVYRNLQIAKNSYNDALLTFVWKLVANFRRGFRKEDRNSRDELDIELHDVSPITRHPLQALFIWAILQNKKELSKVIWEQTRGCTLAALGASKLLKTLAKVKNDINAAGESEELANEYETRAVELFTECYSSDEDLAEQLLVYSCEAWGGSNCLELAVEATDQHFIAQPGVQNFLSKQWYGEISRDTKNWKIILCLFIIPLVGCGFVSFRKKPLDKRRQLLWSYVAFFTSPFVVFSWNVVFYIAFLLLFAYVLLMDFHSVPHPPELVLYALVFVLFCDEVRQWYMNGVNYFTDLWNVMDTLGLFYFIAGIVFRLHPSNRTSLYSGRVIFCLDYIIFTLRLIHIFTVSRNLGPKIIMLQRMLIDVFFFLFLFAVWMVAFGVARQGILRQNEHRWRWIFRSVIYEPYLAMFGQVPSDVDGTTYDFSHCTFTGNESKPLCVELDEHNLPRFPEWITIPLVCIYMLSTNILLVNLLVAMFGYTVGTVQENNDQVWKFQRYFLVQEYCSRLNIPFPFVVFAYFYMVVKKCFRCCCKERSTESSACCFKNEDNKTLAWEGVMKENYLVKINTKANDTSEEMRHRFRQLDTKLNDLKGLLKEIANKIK
T2 sequence (Q7Z2W7 whole entry): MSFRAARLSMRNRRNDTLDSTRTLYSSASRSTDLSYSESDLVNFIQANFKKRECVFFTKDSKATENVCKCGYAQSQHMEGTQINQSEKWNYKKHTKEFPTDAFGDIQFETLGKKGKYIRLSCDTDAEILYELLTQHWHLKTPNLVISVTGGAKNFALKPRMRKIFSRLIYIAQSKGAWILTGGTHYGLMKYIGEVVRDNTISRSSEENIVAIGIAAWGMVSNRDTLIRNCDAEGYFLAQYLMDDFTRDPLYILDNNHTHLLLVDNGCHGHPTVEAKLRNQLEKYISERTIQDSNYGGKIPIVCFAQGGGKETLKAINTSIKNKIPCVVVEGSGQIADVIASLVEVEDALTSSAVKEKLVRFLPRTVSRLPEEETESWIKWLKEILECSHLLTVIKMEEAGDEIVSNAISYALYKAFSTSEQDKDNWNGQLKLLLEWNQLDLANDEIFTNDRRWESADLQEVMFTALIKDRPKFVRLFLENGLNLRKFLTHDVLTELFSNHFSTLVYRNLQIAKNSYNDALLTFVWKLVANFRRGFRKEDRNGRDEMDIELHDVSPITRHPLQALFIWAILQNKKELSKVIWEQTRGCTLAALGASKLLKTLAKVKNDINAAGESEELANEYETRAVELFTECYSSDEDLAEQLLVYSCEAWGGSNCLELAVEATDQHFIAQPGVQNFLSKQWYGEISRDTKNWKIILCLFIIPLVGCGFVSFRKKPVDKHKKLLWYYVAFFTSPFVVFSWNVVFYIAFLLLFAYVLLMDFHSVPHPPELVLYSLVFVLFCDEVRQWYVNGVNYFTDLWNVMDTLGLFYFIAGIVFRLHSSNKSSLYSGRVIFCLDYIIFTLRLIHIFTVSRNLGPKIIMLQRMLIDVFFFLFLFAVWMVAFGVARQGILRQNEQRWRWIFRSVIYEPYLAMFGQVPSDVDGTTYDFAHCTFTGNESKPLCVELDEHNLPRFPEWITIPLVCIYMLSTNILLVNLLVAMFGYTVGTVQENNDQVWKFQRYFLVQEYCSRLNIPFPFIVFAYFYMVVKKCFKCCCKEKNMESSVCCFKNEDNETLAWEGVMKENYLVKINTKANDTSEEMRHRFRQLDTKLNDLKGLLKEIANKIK

On to `COC(=O)c1cccc(CCNC(=O)[C@]2(O)C[C@H](C)CC[C@H]2C(C)C)c1` [Example 107, methyl 3-(2-((1S,2S,5R)-1-hydroxy-2-isopropyl-5-methylcyclohexane-1-carboxamido)ethyl)benzoate], for which the EC50 (in general, the concentration needed to bring the measured effect to its halfway point) is 21.7 nM on pig TRPM8 [1], 3800 nM on human TRPM8 [2], 42.8 nM on human TRPM8 [3] and 2440 nM on pig TRPM8 [4].

As for `CC(C)[C@@H]1CC[C@@H](C)C[C@@]1(O)C(=O)NC[C@H](F)c1ccccc1` [Example 179, (1S,2S,5R)—N-((2R)-2-fluoro-2-phenylethyl)-1-hydroxy-2-isopropyl-5-methylcyclohexane-1-carboxamide], the EC50 is 0.6 nM at pig TRPM8 [1], 590 nM on human TRPM8 [2], 1.1 nM at human TRPM8 [3] and 598 nM at pig TRPM8 [4].

For `CC(C)[C@@H]1CC[C@@H](C)C[C@@]1(O)C(=O)NCC(=O)Oc1ccccc1` [Example 67, phenyl ((1S,2S,5R)-1-hydroxy-2-isopropyl-5-methylcyclohexane-1-carbonyl)glycinate], the EC50 on pig TRPM8 [1] worked out at 5 nM; on human TRPM8 [2] it was 2700 nM; at human TRPM8 [3], 9 nM; on pig TRPM8 [4], 3360 nM.

Consider `CC(C)[C@@H]1CC[C@@H](C)C[C@@]1(O)C(=O)NCC(=O)c1ccccc1F` [Example 85, (1S,2S,5R)—N-(2-(2-fluorophenyl)-2-oxoethyl)-1-hydroxy-2-isopropyl-5-methylcyclohexane-1-carboxamide], for which the EC50 at pig TRPM8 [1] is 2.4 nM; at human TRPM8 [2], 700 nM; on human TRPM8 [3], 3.3 nM; at pig TRPM8 [4], 967 nM.

Regarding `COC(=O)COc1ccccc1C(O)CNC(=O)[C@]1(O)C[C@H](C)CC[C@H]1C(C)C` (stereo partly drawn) [Example 36, methyl 2-(2-(1-hydroxy-2-((1S,2S,5R)-1-hydroxy-2-isopropyl-5-methylcyclohexane-1-carboxamido)ethyl)phenoxy)acetate], the EC50 came out at 36 nM on pig TRPM8 [1], 1880 nM on human TRPM8 [2], 47 nM on human TRPM8 [3] and 3810 nM on pig TRPM8 [4].

Regarding `CC(C)[C@@H]1CC[C@@H](C)C[C@@]1(O)C(=O)N[C@@H]1COc2ccccc2C1` [Example 94, (1S,2S,5R)—N-((3S)-chroman-3-yl)-1-hydroxy-2-isopropyl-5-methylcyclohexane-1-carboxamide], the concentration giving a half-maximal response (EC50) at pig TRPM8 [1] turned out to be 7.7 nM; on human TRPM8 [2] it was 1070 nM; on human TRPM8 [3], 6.4 nM; at pig TRPM8 [4], 1500 nM.

Regarding `[2H]C(O)(CNC(=O)[C@]1(O)C[C@H](C)CC[C@H]1C(C)C)c1ccccc1` (stereo partly drawn) [Example 72, (1S,2S,5R)-1-hydroxy-N-(2-hydroxy-2-phenylethyl-2-d)-2-isopropyl-5-methylcyclohexane-1-carboxamide], the half-maximal effective concentration (EC50) on pig TRPM8 [1] was determined as 2 nM; at human TRPM8 [2] it was 1390 nM; on human TRPM8 [3] it was 3 nM; at pig TRPM8 [4], 790 nM.

For `CC(C)[C@@H]1CC[C@@H](C)C[C@@]1(O)C(=O)NC[C@@H](F)c1ccccc1` [Example 180, (1S,2S,5R)—N-((2S)-2-fluoro-2-phenylethyl)-1-hydroxy-2-isopropyl-5-methylcyclohexane-1-carboxamide], the EC50 at pig TRPM8 [1] turned out to be 1.2 nM; at human TRPM8 [2] it was 1700 nM; at human TRPM8 [3], 3 nM; at pig TRPM8 [4], 1010 nM.

As for `COC(=O)COc1ccccc1CCNC(=O)[C@]1(O)C[C@H](C)CC[C@H]1C(C)C` [Example 61, methyl 2-(2-(2-((1S,2S,5R)-1-hydroxy-2-isopropyl-5-methylcyclohexane-1-carboxamido)ethyl)phenoxy)acetate], the 50% effective concentration (EC50) on pig TRPM8 [1] worked out at 7.4 nM; on human TRPM8 [2] it was 2910 nM; at human TRPM8 [3], 11.1 nM; on pig TRPM8 [4], 5050 nM.

As for `CC(C)[C@@H]1CC[C@@H](C)C[C@@]1(O)C(=O)NC[C@H](O)c1cccc(CO)c1` [Example 43, (1S,2S,5R)-1-hydroxy-N-((2R)-hydroxy-2-(3-(hydroxymethyl)phenyl)ethyl)-2-isopropyl-5-methylcyclohexane-1-carboxamide], the EC50 at pig TRPM8 [1] is 56.9 nM; at human TRPM8 [2], 4000 nM; on human TRPM8 [3] it was 191 nM; at pig TRPM8 [4], 3970 nM.

Turning to `CC(C)[C@@H]1CC[C@@H](C)C[C@@]1(O)C(=O)NCCOc1ccccc1` [Example 120, (1S,2S,5R)-1-hydroxy-2-isopropyl-5-methyl-N-(2-phenoxyethyl)cyclohexanecarboxamide], the EC50 on pig TRPM8 [1] is 13.9 nM; on human TRPM8 [2] it was 3600 nM; on human TRPM8 [3], 31.1 nM; on pig TRPM8 [4] it was 5600 nM.

In the case of `CC(C)[C@@H]1CC[C@@H](C)C[C@@]1(O)C(=O)NCCc1ccccc1O` [Example 116, (1S,2S,5R)-1-hydroxy-N-[2-(2-hydroxyphenyl)ethyl]-2-isopropyl-5-methyl-cyclohexanecarboxamide], the concentration for a half-maximal effect (EC50) at pig TRPM8 [1] amounted to 2.5 nM; at human TRPM8 [2], 1300 nM; on human TRPM8 [3], 3.3 nM; on pig TRPM8 [4], 504 nM.

Turning to `CC(C)[C@@H]1CC[C@@H](C)C[C@@]1(O)C(=O)NCC(NC(=O)CN)c1ccccc1` (single isomer, unassigned) [Example 184], the half-maximal effective concentration (EC50) was 28.1 nM on pig TRPM8 [1], 600 nM on human TRPM8 [2], 14.5 nM at human TRPM8 [3] and 567 nM at pig TRPM8 [4].

`CC(C)[C@@H]1CC[C@@H](C)C[C@@]1(O)C(=O)NCC1(O)CCc2ccccc21` (stereo partly drawn) [Example 23, (1S,2S,5R)-1-hydroxy-N-((1-hydroxy-2,3-dihydro-1H-inden-1-yl)methyl)-2-isopropyl-5-methylcyclohexane-1-carboxamide]: the EC50 was 6 nM at pig TRPM8 [1], 500 nM at human TRPM8 [2], 7 nM on human TRPM8 [3] and 1070 nM on pig TRPM8 [4].

In the case of `CC(C)[C@@H]1CC[C@@H](C)C[C@@]1(O)C(=O)NC[C@@H](O)c1cccc(O)c1` [Example 42, (1S,2S,5R)-1-hydroxy-N-((2S)-hydroxy-2-(3-hydroxyphenyl)ethyl)-2-isopropyl-5-methylcyclohexane-1-carboxamide], the half-maximal effective concentration (EC50) amounted to 3.8 nM at pig TRPM8 [1], 910 nM on human TRPM8 [2], 12.4 nM at human TRPM8 [3] and 921 nM at pig TRPM8 [4].

With `CC(C)[C@@H]1CC[C@@H](C)C[C@@]1(O)C(=O)N[C@H](CO)Cc1ccccc1` [Example 146, (1S,2S,5R)-N-[(1S)-1-benzyl-2-hydroxy-ethyl]-1-hydroxy-2-isopropyl-5-methyl-cyclohexanecarboxamide], the concentration giving a half-maximal response (EC50) on pig TRPM8 [1] was 16 nM; at human TRPM8 [2], 1200 nM; at human TRPM8 [3], 16 nM; on pig TRPM8 [4] it was 2390 nM.

Take `COC(=O)[C@H](N)COc1cccc(CCNC(=O)[C@]2(O)C[C@H](C)CC[C@H]2C(C)C)c1` [Example 26, methyl O-(3-(2-((1S,2S,5R)-1-hydroxy-2-isopropyl-5-methylcyclohexane-1-carboxamido)ethyl)phenyl)-D-serinate]: the EC50 on pig TRPM8 [1] was 5.5 nM; at human TRPM8 [2] it was 1800 nM; on human TRPM8 [3], 3.7 nM; at pig TRPM8 [4] it was 1100 nM.

Take `CC(C)[C@@H]1CC[C@@H](C)C[C@@]1(O)C(=O)NCCc1ccc(CO)cc1` [Example 109, (1S,2S,5R)-1-hydroxy-N-(4-(hydroxymethyl)phenethyl)-2-isopropyl-5-methylcyclohexane-1-carboxamide]: the EC50 on pig TRPM8 [1] was determined as 11.9 nM; on human TRPM8 [2] it was 2200 nM; on human TRPM8 [3], 22.4 nM; at pig TRPM8 [4], 1770 nM.

The values above are taken from patent publication US20240124408A1 (Sanofi, priority 2020, published 2024).
